Results: patent publication US8575136B2, “2-methylene-1α-hydroxy-18,19,21-trinorvitamin D3 analogs and uses thereof” (Wisconsin Alumni Research Foundation, priority 2006, dated 2013)
“Also recorded” adds a separate entry of the source.

Columns and labels:
[1] = Intestinal calcium transport (everted gut sac method); set-up: species or system Sprague-Dawley rats; conditions: in vivo, rats, ip doses; FIG. 3
Method: (§1) Male, weanling Sprague-Dawley rats were placed on Diet 11 (0.47% Ca) diet+AEK for one week followed by Diet 11 (0.02% Ca)+AEK for 3 weeks. The rats were then switched to a diet containing 0.47% Ca for one week followed by two weeks on a diet containing 0.02% Ca. Dose administration began during the last week on 0.02% calcium diet. Four consecutive ip doses were given approximately 24 hours apart. Twenty-four hours after the last dose, blood was collected from the severed neck and the concentration of serum calcium determined as a measure of bone calcium mobilization. The first 10 cm of the intestine was also collected for intestinal calcium transport analysis using the everted gut sac method. The everted gut sac assay was carried out as previously described by Martin and Deluca, Am. J. Physiol. 216, 1351 (1969); (DeLuca et al., U.S. Pat. No. 4,188,345), which are incorporated by reference as if fully set forth herein.
Both control and test articles are administered by intraperitoneal injection in 100 microliters for 4-7 consecutive days spaced approximately 24 hours apart.

[2] = molecular target: T1, full-length recombinant rat vitamin D receptor (Rattus norvegicus, UniProt P13053); experiment: Vitamin D receptor binding, competition with [3H]-1,25-(OH)2-D3; conditions: compared to 1α,25-dihydroxyvitamin D3; FIG. 1
T1 construct: Full-length recombinant rat receptor was expressed in E. coli BL21(DE3) Codon Plus RIL cells; histidine tag (C); made in house; host or cells: E. coli BL21(DE3) Codon Plus RIL
T1 sequence (P13053 1-423): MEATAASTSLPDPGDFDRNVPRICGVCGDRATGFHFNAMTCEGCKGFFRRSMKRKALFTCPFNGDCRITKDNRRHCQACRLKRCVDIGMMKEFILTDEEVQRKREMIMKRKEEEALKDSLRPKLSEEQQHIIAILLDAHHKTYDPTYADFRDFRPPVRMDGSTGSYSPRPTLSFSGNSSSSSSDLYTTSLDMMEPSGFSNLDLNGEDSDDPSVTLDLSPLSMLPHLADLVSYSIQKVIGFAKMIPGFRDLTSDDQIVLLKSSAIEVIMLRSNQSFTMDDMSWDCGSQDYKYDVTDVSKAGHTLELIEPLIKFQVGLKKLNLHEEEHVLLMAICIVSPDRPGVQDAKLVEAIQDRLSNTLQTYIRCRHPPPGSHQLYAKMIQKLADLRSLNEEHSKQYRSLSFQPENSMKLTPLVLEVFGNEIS
Method: Full-length recombinant rat receptor was expressed in E. coli BL21(DE3) Codon Plus RIL cells and purified to homogeneity using two different column chromatography systems. The first system was a nickel affinity resin that utilizes the C-terminal histidine tag on this protein. The protein that was eluted from this resin was further purified using ion exchange chromatography (S-Sepharose Fast Flow). Aliquots of the purified protein were quick frozen in liquid nitrogen and stored at −80° C. until use. For use in binding assays, the protein was diluted in TEDK50 (50 mM Tris, 1.5 mM EDTA, pH7.4, 5 mM DTT, 150 mM KCl) with 0.1% Chaps detergent. The receptor protein and ligand concentration was optimized such that no more than 20% of the added radiolabeled ligand was bound to the receptor.
Radiolabeled ligand (^3H-1,25(OH)2D3, ˜159 Ci/mmole) was added in ethanol at a final concentration of 1 nM.
Radiolabeled and unlabeled ligands were added to 100 mcl of the diluted protein at a final ethanol concentration of <10%, mixed and incubated overnight on ice to reach binding equilibrium. The following day, 100 mcl of hydroxylapatite slurry (50%) was added to each tube and mixed at 10-minute intervals for 30 minutes. […] Total binding was determined from the tubes containing only radiolabeled ligand.

[3] = system: HL-60 cells; experiment: HL-60 differentiation (nitro blue tetrazolium reduction); assay type: cell-based, human; conditions: compared to 1α,25-dihydroxyvitamin D3; FIG. 4
Method: The study drugs were dissolved in ethanol and the concentrations determined using UV spectrophotometry. Serial dilutions were prepared so that a range of drug concentrations could be tested without changing the final concentration of ethanol (<0.2%) present in the cell cultures.
Human promyelocytic leukemia (HL60) cells were grown in RPMI-1640 medium containing 10% fetal bovine serum. The cells were incubated at 37° C. in the presence of 5% CO2.
HL60 cells were plated at 1.2×10^5 cells/ml. Eighteen hours after plating, cells in duplicate were treated with drug. Four days later, the cells were harvested and a nitro blue tetrazolium reduction assay was performed (Collins et al., 1979; J. Exp. Med. 149:969-974). The percentage of differentiated cells was determined by counting a total of 200 cells and recording the number that contained intracellular black-blue formazan deposits. Verification of differentiation to monocytic cells was determined by measuring phagocytic activity (data not shown).

[4] = system: 24-hydyroxylase (24Ohase) gene promoter upstream of a luciferase reporter gene in ROS 17/2.8 (bone) cells; experiment: In vitro transcription assay (luciferase reporter); assay type: cell-based; conditions: Ros17/2.8 (bone) cells, compared to 1α,25-dihydroxyvitamin D3; FIG. 5
Method: Transcription activity was measured in ROS 17/2.8 (bone) cells that were stably transfected with a 24-hydyroxylase (24Ohase) gene promoter upstream of a luciferase reporter gene (Arbour et al., 1998). Cells were given a range of doses. Sixteen hours after dosing the cells were harvested and luciferase activities were measured using a luminometer. (RLU=relative luciferase units)

[5] = Bone calcium mobilization (serum calcium); set-up: species or system Sprague-Dawley rats; conditions: in vivo, rats, ip doses; FIG. 2
Method: as §1, with “herein. […]” for “herein.”
Twenty-four hours after the final dose, approximately 1 ml of blood is allowed to coagulate at room temperature and then centrifuged at 3000×g for 15 minutes. […] The level of calcium is determined by diluting the serum into 0.1% lanthum chloride and measuring the absorbance on an atomic absorption spectrophotometer (Perkin Elmer Model 3110, Shelton, Conn.).

C=C1[C@H](O)CC(=C/C=C2\CCC[C@@H]3[C@@H](CCCCC(C)C)CC[C@@H]23)C[C@H]1O [SX-99, 2-methylene-1α-hydroxy-18,19,21-trinorvitamin D3]
intestinal calcium transport activity [1]: potent calcium transport activity; also recorded: significant intestinal calcium transport activity
binding to the recombinant vitamin D receptor [2]: considerably less active; also recorded: relatively high binding
inducing differentiation of HL-60 cells [3]: slightly less active; also recorded: relatively high cell differentiation activity
stimulating transcription of a reporter gene [4]: less active
bone calcium mobilization activity [5]: significant bone calcium mobilization activity; also recorded: good ability to mobilize calcium from bone
